Test results reported in patent US5180831A (priority 1990, dated 1993).
Entries after “also recorded” stand apart in the source; their conditions may differ.

Experiments:
AChE = type: biochemical, electric eel and human
in vivo [1] = settings: mouse, im
in vivo [2] = settings: mouse, po
[3] = mouse, in vivo
[4] = parameters: species or system Male ICR mice; settings: mouse, in vivo
electric eel AChE = electric eel AChE (Electrophorus electricus, UniProt O42275); assay: biochemical
human erythrocyte AChE = human erythrocyte AChE (Homo sapiens, UniProt P22303); assay: biochemical; settings: read-out: kobs /[I] (human)
Chain of human erythrocyte AChE (P22303-2 with tags, fused parts or gaps limits assumed): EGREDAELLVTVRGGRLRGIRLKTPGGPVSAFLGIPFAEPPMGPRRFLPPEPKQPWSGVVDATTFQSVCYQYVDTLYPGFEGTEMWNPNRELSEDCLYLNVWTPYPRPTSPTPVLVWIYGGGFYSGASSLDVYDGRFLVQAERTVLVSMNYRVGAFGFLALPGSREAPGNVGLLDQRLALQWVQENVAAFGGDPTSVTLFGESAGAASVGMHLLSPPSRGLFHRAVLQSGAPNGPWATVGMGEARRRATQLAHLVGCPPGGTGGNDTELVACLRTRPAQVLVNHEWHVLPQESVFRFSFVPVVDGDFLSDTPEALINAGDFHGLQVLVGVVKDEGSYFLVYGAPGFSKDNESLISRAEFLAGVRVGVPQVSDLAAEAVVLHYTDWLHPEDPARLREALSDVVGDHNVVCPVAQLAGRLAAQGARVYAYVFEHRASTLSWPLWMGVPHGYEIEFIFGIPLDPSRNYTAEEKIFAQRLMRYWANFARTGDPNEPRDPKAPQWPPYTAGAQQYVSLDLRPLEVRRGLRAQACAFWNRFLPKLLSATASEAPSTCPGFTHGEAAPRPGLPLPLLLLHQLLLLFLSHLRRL

Chain of electric eel AChE (O42275 24-633): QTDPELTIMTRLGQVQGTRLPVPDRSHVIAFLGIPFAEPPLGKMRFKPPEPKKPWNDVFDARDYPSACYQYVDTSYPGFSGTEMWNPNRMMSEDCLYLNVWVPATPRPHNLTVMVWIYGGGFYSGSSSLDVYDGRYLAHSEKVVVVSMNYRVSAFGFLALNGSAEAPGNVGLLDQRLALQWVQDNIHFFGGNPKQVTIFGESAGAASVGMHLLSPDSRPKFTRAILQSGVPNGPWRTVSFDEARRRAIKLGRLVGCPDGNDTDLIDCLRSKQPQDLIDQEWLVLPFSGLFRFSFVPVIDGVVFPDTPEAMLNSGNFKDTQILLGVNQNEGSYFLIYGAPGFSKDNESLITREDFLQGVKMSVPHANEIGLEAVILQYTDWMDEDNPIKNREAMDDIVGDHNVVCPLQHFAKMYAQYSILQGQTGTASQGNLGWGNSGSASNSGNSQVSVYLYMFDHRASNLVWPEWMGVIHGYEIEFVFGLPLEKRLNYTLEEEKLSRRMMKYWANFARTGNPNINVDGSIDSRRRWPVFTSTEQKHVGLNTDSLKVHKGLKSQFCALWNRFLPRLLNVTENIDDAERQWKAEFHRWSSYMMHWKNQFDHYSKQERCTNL

SMILES | LD50 at 24 h (in vivo [1]) [µmol/kg] | other results
C[n+]1ccccc1C=NOCc1ccccc1 [Compound 1a, O-Benzyl-N-(1-methyl-2-pyridinemethylene) hydroxylamine chloride] | 180 | mode of inhibition (AChE): pure competitive inhibition
C[n+]1cccc(O)c1C=NOCc1ccccc1 [Compound 1b, O-Benzyl-N-(3-hydroxy-1-methyl-2-pyridinemethylene) hydroxylamine chloride] | > 880 | mode of inhibition (AChE): pure competitive inhibition; LD50 at 24 h (in vivo [2]): 3600 µmol/kg
CON=Cc1c(O)ccc[n+]1C [Compound 1c, O-Methyl-N-(3-hydroxy-1-methyl-2-pyridinemethylene) hydroxylamine chloride] | > 1970 | –
C[n+]1cccc(O)c1C=NOCc1ccc(Cl)cc1 [Compound 1d, O-(p-Chlorobenzyl)-N-(3-hydroxy-1-methyl-2-pyridinemethylene) hydroxylamine chloride] | > 320 | mode of inhibition (AChE): pure competitive inhibition
COc1ccc(CON=Cc2c(O)ccc[n+]2C)cc1 [Compound 1e, O-(p-Methoxybenzyl)-N-(3-hydroxy-1-methyl-2-pyridinemethylene) hydroxylamine chloride] | > 760 | mode of inhibition (AChE): pure competitive inhibition; LD50 at 24 h (in vivo [2]): > 3200 µmol/kg
C[n+]1cccc(O)c1C=NO [Compound 1f] | – | toxicity in words [3]: small increase in toxicity
C[n+]1cc(O)ccc1C=NO [Compound 1g, reference compound] | > 514 | toxicity in words [3]: small increase in toxicity
C[n+]1ccccc1/C=N/O [Compound 2-PAM, reference compound] | 853 | –
C[n+]1cccc(O)c1C=NNC(N)=O.[Cl-] [Compound 3a, 2-[[(Aminocarbonyl)hydrazono]methyl]-3-hydroxy-1-methyl pyridinium chloride] | > 1100 | –
C[n+]1cccc(O)c1C=NNC(=O)Nc1ccccc1.[Cl-] [Compound 3b, 3-Hydroxy-1-methyl-2-[[(N-phenylaminocarbonyl)hydrazono]methyl]pyridinium chloride] | > 40 | –
C[n+]1ccccc1C=NNC(N)=O [Compound 3c] | > 560 | –
C[n+]1ccccc1C=NNC(=O)Nc1ccccc1.[Cl-] [Compound 3d, 1-Methyl-2-[[(N-phenylaminocarbonyl)hydrazono]methyl]pyridinium chloride] | > 430 | –
C[n+]1cccc(O)c1C=NNC(=O)C[n+]1ccccc1 [Compound 5a, 2-(3-Hydroxy-1-methyl-2-pyridinemethylene)-1-[2-(1-pyridinium)acetyl]hydrazine dichloride] | > 670 | GA reactivator activity in words [4]: significant activity as GA reactivators; also recorded: good in vivo reactivators against GA; LD50 at 24 h (in vivo [2]): 2900 µmol/kg
C[n+]1ccccc1C=NNC(=O)C[n+]1ccccc1 [Compound 5b, 2-(1-Methyl-2-pyridinemethylene)-1-[2-(1-pyridinium)acetyl]hydrazine dichloride] | 380 | GA reactivator activity in words [4]: significant activity as GA reactivators; also recorded: good in vivo reactivators against GA
NC(=O)c1cc[n+](COC[n+]2ccccc2/C=N/O)cc1 [HI-6, reference compound] | 4500 | –
CNC(=O)Oc1ccc2c(c1)[C@]1(C)CCN(C)[C@@H]1N2C [Phy, Physostigmine] | – | kobs /[I] (eel) (electric eel AChE; 0.1 m phosphate buffer): 14000 M⁻¹ s⁻¹
CN(C)C(=O)Oc1ccc[n+](C)c1 [Pyr, Pyridostigmine] | – | kinact/KI (electric eel AChE; read-out: kobs /[I] (eel)): 580 M⁻¹ s⁻¹; kinact/KI (human erythrocyte AChE): 13000 M⁻¹ s⁻¹
